From ChEMBL document CHEMBL3585263, “Novel Octahydropyrrolo[3,4-c]pyrroles Are Selective Orexin-2 Antagonists: SAR Leading to a Clinical Candidate” (J Med Chem, 2015)

Assays:
[1] = biological target: Voltage-gated inwardly rectifying potassium channel KCNH2 (Homo sapiens, UniProt Q12809); assay: Inhibition of [3H]-astemizole binding to human ERG expressed in HEK293 cells
[2] = biological target: T1, Orexin receptor type 2 (Homo sapiens, UniProt O43614); assay: Binding affinity to human OX2 receptor
T1 sequence (O43614 whole entry): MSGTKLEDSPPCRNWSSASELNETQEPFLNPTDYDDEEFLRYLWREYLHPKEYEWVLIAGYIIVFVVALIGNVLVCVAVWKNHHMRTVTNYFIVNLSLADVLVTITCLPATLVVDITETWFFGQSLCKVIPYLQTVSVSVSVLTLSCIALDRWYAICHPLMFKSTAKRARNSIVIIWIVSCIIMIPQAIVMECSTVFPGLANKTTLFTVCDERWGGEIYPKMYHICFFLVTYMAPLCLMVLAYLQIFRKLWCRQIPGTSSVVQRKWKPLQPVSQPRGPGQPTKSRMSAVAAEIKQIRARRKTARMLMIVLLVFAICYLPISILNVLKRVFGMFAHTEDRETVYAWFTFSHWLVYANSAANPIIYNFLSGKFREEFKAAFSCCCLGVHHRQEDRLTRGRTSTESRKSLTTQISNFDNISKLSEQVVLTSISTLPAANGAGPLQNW

[3] = biological target: T2, Orexin/Hypocretin receptor type 1 (Homo sapiens, UniProt O43613); assay: Binding affinity to human OX1 receptor
T2 sequence (O43613 whole entry): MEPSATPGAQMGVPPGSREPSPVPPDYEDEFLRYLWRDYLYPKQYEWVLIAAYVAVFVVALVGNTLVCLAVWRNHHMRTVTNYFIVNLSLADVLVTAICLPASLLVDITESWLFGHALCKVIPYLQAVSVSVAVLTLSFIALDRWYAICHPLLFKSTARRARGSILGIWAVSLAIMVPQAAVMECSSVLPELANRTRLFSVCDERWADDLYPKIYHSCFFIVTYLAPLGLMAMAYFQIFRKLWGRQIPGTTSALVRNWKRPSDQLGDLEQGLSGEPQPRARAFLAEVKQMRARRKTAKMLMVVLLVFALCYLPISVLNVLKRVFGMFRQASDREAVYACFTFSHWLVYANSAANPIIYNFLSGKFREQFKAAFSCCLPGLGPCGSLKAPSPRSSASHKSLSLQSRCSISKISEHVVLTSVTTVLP

[4] = biological target: T3, Orexin receptor type 2 (Rattus norvegicus, UniProt P56719); assay: Binding affinity to rat OX2 receptor
T3 sequence (P56719 whole entry): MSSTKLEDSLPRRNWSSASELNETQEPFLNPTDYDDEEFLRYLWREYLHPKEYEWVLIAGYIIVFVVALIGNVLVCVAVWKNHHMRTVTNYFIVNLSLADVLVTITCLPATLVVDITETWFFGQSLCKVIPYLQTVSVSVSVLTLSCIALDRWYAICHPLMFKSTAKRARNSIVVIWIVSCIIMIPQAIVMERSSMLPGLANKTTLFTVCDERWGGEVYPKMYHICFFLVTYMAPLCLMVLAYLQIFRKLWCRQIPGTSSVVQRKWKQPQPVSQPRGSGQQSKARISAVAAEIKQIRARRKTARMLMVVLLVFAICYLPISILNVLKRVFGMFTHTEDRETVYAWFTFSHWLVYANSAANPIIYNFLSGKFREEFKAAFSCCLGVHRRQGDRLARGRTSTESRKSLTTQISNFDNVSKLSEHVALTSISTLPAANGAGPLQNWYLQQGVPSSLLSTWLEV

Chain of Voltage-gated inwardly rectifying potassium channel KCNH2 (Q12809 whole entry): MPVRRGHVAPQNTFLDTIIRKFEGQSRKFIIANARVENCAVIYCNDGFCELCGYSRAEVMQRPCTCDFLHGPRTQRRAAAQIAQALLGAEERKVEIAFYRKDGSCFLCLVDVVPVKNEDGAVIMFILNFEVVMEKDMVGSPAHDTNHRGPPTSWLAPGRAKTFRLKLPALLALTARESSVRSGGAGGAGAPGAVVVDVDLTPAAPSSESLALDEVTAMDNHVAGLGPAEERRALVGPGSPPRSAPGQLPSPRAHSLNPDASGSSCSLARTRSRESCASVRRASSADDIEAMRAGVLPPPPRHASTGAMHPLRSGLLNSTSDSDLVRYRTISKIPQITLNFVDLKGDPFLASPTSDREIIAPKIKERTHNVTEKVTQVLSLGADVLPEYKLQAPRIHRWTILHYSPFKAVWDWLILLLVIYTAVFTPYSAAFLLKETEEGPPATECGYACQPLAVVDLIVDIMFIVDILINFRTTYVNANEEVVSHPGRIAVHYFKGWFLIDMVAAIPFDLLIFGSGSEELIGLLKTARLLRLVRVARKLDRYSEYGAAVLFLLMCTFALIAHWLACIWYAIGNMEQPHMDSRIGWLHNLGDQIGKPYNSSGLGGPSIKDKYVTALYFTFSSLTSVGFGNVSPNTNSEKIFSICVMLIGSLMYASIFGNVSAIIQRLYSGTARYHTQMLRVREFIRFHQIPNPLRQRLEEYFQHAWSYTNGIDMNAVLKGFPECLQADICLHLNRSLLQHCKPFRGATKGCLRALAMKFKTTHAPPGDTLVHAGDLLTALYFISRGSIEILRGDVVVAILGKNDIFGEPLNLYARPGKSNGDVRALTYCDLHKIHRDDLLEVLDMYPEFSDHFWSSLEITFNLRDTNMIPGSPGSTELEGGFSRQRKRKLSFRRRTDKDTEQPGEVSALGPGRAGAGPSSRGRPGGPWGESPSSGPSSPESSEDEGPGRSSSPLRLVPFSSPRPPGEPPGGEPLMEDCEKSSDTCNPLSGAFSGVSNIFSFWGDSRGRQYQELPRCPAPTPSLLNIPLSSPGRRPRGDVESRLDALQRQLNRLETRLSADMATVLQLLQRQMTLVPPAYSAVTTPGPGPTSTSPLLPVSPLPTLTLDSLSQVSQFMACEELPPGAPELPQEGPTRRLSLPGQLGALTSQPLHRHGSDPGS

Ki [2] [nM] | Ki [3] [nM] | Ki [4] [nM] | SMILES | IC50 [1] [nM]
240 | 1320 | – | O=C(c1ccccc1-c1ccccc1)N1C[C@@H]2CN(c3cnc4ccccc4n3)C[C@@H]2C1 | –
– | – | 38 | COc1ccc(-n2nccn2)c(C(=O)N2C[C@@H]3CN(c4nc(C)cc(C)n4)C[C@@H]3C2)c1 | 8100
768 | > 10000 | – | O=C(c1ccccc1-n1cccn1)N1C[C@@H]2CN(c3cnc4ccccc4n3)C[C@@H]2C1 | –
141 | 3300 | – | COc1ccnc(N2C[C@H]3CN(C(=O)c4c(C)ccc5ccccc45)C[C@H]3C2)n1 | –
41 | 257 | – | COc1cc(OC)nc(N2C[C@H]3CN(C(=O)c4ccccc4-c4cccs4)C[C@H]3C2)n1 | –
510 | 5300 | – | COc1ccc(C(=O)N2C[C@@H]3CN(c4nc5ccc(Cl)cc5s4)C[C@@H]3C2)c(OC)c1 | –
687 | 1400 | – | O=C(c1ccccc1-c1ccccc1)N1C[C@@H]2CN(c3nc4ccccc4s3)C[C@@H]2C1 | –
180 | > 10000 | – | Cc1cc(C)nc(N2C[C@H]3CN(C(=O)c4ccccc4-c4cccc(F)c4)C[C@H]3C2)n1 | –

More lines, now with the values behind:

SMILES | Ki [2] [nM] | Ki [3] [nM] | Ki [4] [nM] | IC50 [1] [nM]
Cc1cc(C)nc(N2C[C@H]3CN(C(=O)c4cc(F)ccc4-n4nccn4)C[C@H]3C2)n1 | – | – | – | > 10000
Cc1cc(C)nc(N2C[C@H]3CN(C(=O)c4c(C)ccc5ccccc45)C[C@H]3C2)n1 | 51 | 1800 | – | –
Cc1ccnc(N2C[C@H]3CN(C(=O)c4ccccc4-c4ccccc4)C[C@H]3C2)n1 | 899 | > 10000 | – | –
O=C(c1ccccc1-c1ccccc1)N1C[C@@H]2CN(c3nccc(-c4ccccc4)n3)C[C@@H]2C1 | 421 | 765 | – | –
CCOc1ccc2ccccc2c1C(=O)N1C[C@@H]2CN(c3nc(C)cc(C)n3)C[C@@H]2C1 | 27 | 557 | – | –
COc1ccc(C(=O)N2C[C@@H]3CN(c4nc5ccc(C)cc5s4)C[C@@H]3C2)c(OC)c1 | 680 | > 10000 | – | –
O=C(c1ccccc1-c1cccs1)N1C[C@@H]2CN(c3cnc4ccccc4n3)C[C@@H]2C1 | 106 | 623 | – | –
COc1ccc(C(=O)N2C[C@@H]3CN(c4nc5ccc(F)cc5s4)C[C@@H]3C2)c(OC)c1 | 746 | > 10000 | – | –
O=C(c1ccccc1-c1ccccc1)N1C[C@@H]2CN(c3nc4ccc(F)cc4s3)C[C@@H]2C1 | 294 | 925 | – | –
Cc1cc(C)nc(N2C[C@H]3CN(C(=O)c4c(C)cccc4-n4nccn4)C[C@H]3C2)n1 | – | – | 12 | 6900
O=C(c1ccccc1-c1cccs1)N1C[C@@H]2CN(c3nc4ccc(F)cc4s3)C[C@@H]2C1 | 137 | 267 | – | –
COc1ccc(C(=O)N2C[C@@H]3CN(c4nc5ccc(OC)cc5s4)C[C@@H]3C2)c(OC)c1 | 875 | > 10000 | – | –
